# Measurements: the OPERA property sets (Mansouri et al. 2018)
# Conditions: for solubility: 21 °C
logP,solubility,SMILES
-0.43,,CC(=O)Oc1ccccc1C(=O)OCC(=O)NCC(N)=O
0.9,,CCNC(=O)COC(=O)c1ccccc1OC(C)=O
1.42,,CC(=O)OCOC(=O)c1ccccc1OC(C)=O
2.88,78 µM,CC(=O)Oc1ccccc1C(=O)Oc1ccccc1
0.38,,CC(=O)Oc1ccccc1C(=O)OCC(=O)N(C)C
1.67,,CCOC(=O)CN(C)C(=O)COC(=O)c1ccccc1OC(C)=O
0.11,,CC(=O)Oc1ccccc1C(=O)OCS(C)=O (stereo not given)
2.15,63.8 µM,CC(=O)Nc1ccc(OC(=O)c2ccccc2OC(C)=O)cc1
1.94,2290 µM,CSCOC(=O)c1ccccc1OC(C)=O
2.03,,CC(=O)Oc1ccccc1C(=O)OCC(=O)N(C(C)C)C(C)C
1.67,,CCOC(=O)COC(=O)c1ccccc1OC(C)=O
-0.46,,CC(=O)Oc1ccccc1C(=O)OCC(=O)N(C)CC(N)=O
